From patent US20130123255A1, “COMBINATION OF A PI3K INHIBITOR AND A MEK INHIBITOR” (CHUGAI SEIYAKU KABUSHIKI KAISHA, priority 2011, published 2013)

Legend:
[1] = tested on: ERK phosphorylation in HCT116 cells; assay: Western blot of MAPK pathway, ERK phosphorylation; assay type: cell-based
Protocol: (§1) To investigate the combination effect on PI3K and MAPK pathway, compound of formula (I) and compound of formula (II) were tested on HCT116 cells.
(§2) 5×10^5 of cells were treated with compound of formula (I) alone, compound of formula (II) alone or the combination thereof at 1 μM for 24 hours in 6-well plate. After that, HCT116 cells were lysed with Cell Lysis Buffer (Cell Signaling Technology) containing protease and phosphatase inhibitors. The lysates were denatured and then subjected to SDS-PAGE. After electroblotting, the polyvinylidene fluoride membranes were blocked with Blocking One (Nacalai Tesque) for 1 h. Membranes were then incubated with primary antibodies purchased from Cell Signaling Technology Inc., and anti-actin antibody purchased from Santa Cruz Biotechnology over night at 4° C., followed by washing three times with 0.1% Tween 20 (Nacalai Tesque) in TBS buffer (TBS-T buffer; TaKaRa Bio). This was followed by 0.5 to 1 h incubation at room temperature with secondary antibodies (Cell Signaling Technology). Then, membranes were washed four times with TBS-T buffer, followed by incubation with ECL or ECL-plus solutions (GE Healthcare). Signals were detected using LAS-4000 (Fujifilm) according to the manufacturer's instructions.

[2] = tested on: Akt phosphorylation in HCT116 cells; assay: Western blot of PI3K pathway, Akt phosphorylation; assay type: cell-based; settings: 1 μM, 24 hours, FIG. 3
Protocol: as §1, §2

SMILES	phosphorylation of ERK [1]	phosphorylation of Akt [2]
O=C(NOCCO)c1cc(CN2OCCCC2=O)c(F)c(F)c1Nc1ccc(I)cc1F [compound of formula (I), 3,4-difluoro-2-(2-fluoro-4-iodo-phenylamino)-N-(2-hydroxy-ethoxy)-5-(3-oxo-[1,2]oxazinan-2-ylmethyl)-benzamide]	suppressed	–
CS(=O)(=O)N1CCc2c(-c3cnc(N)nc3)nc(N3CCOCC3)nc21 [compound of formula (II), 5-(7-methanesulfonyl-2-morpholin-4-yl-6,7-dihydro-5H-pyrrolo[2,3-d]pyrimidin-4-yl)-pyrimidin-2-ylamine]	–	suppressed
